Experimental data: the supplement of paper PMC10307832

How the values were obtained:
Assay in all cases: relative viability (nuclei count vs DMSO), 5 days (fraction); higher = more cells survive
[1] = test system: NCI-H1299
How it was run: (§1)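 A single step with final 0.05% Triton X-100, 1% formaldehyde and 1 ug/ml Hoechst fixed the cells and stained nuclei 5 days after treatment. Lung cancer cell lines in 1536-well plates had been treated by pin tool the day after seeding with one drug alone or a fixed anchor-drug dose plus five library-drug doses (not always all listed) in √10 steps, and nuclei were counted on 4× images. Relative viability is the ratio of nuclei in treated wells to nuclei in vehicle wells, taken as the median of duplicate plates.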

[2] = test system: NCI-H596
How it was run: as §1

[3] = test system: NCI-H1993
How it was run: as §1

[4] = test system: EBC-1
How it was run: as §1

[5] = test system: LCLC-97TM1
How it was run: as §1

[6] = test system: NCI-H1355
How it was run: as §1

[7] = test system: IA-LM
How it was run: as §1

[8] = test system: NCI-H322M
How it was run: as §1

[9] = test system: Calu-6
How it was run: as §1

[10] = test system: A549
How it was run: as §1

[11] = test system: UMC-11
How it was run: as §1

[12] = test system: NCI-H1703
How it was run: as §1

[13] = test system: NCI-H23
How it was run: as §1

Q: Which relative viability ([1]; first compound 0.04 µM) does the source give for `Cc1sc2c(c1C)C(c1ccc(Cl)cc1)=N[C@@H](CC(=O)OC(C)(C)C)c1nnc(C)n1-2` [JQ1] + C[C@]1(O)C[C@@H](c2nc(-c3ccc4ccc(-c5ccccc5)nc4c3)c3c(N)nccn32)C1 [Linsitinib] (partner 1 µM) here?
A: 0.97

Q: And the relative viability ([1]; first compound 0.1265 µM)?
A: 0.781

Q: And the relative viability ([1]; first compound 0.4 µM)?
A: 0.883

Q: What about the relative viability ([1]; first compound 1.265 µM) of the same compound?
A: 0.36

Q: What about the relative viability ([1]; first compound 4 µM) of the same compound?
A: 0.238

Q: And the relative viability ([2]; first compound 0.04 µM)?
A: 1.22

Q: What about the relative viability ([2]; first compound 0.1265 µM) of the same compound?
A: 1.03

Q: And the relative viability ([2]; first compound 0.4 µM)?
A: 0.587

Q: And the relative viability ([2]; first compound 1.265 µM)?
A: 0.418

Q: And the relative viability ([2]; first compound 4 µM)?
A: 0.361

Q: And the relative viability ([3]; first compound 0.04 µM)?
A: 0.729

Q: And the relative viability ([3]; first compound 0.1265 µM)?
A: 0.855

Q: And the relative viability ([3]; first compound 0.4 µM)?
A: 0.809

Q: What about the relative viability ([3]; first compound 1.265 µM) of the same compound?
A: 0.829

Q: What about the relative viability ([3]; first compound 4 µM) of the same compound?
A: 0.736

Q: And the relative viability ([4]; first compound 0.04 µM)?
A: 0.8

Q: And the relative viability ([4]; first compound 0.1265 µM)?
A: 0.523

Q: What about the relative viability ([4]; first compound 0.4 µM) of the same compound?
A: 0.332

Q: What about the relative viability ([4]; first compound 1.265 µM) of the same compound?
A: 0.112

Q: And the relative viability ([4]; first compound 4 µM)?
A: 0.112

Q: And the relative viability ([5]; first compound 0.1265 µM)?
A: 0.181

Q: What about the relative viability ([5]; first compound 0.4 µM) of the same compound?
A: 0.212

Q: What about the relative viability ([5]; first compound 1.265 µM) of the same compound?
A: 0.125

Q: What about the relative viability ([5]; first compound 4 µM) of the same compound?
A: 0.156

Q: And the relative viability ([6]; first compound 0.04 µM)?
A: 0.813

Q: What about the relative viability ([6]; first compound 0.1265 µM) of the same compound?
A: 0.817

Q: What about the relative viability ([6]; first compound 0.4 µM) of the same compound?
A: 0.814

Q: And the relative viability ([6]; first compound 1.265 µM)?
A: 0.574

Q: What about the relative viability ([6]; first compound 4 µM) of the same compound?
A: 0.351

Q: And the relative viability ([7]; first compound 0.04 µM)?
A: 0.406

Q: And the relative viability ([7]; first compound 0.1265 µM)?
A: 0.098

Q: What about the relative viability ([7]; first compound 0.4 µM) of the same compound?
A: 0.153

Q: What about the relative viability ([7]; first compound 1.265 µM) of the same compound?
A: 0.106

Q: And the relative viability ([7]; first compound 4 µM)?
A: 0.0793

Q: What about the relative viability ([8]; first compound 0.04 µM) of the same compound?
A: 0.546

Q: What about the relative viability ([8]; first compound 0.1265 µM) of the same compound?
A: 0.935

Q: What about the relative viability ([8]; first compound 0.4 µM) of the same compound?
A: 0.874

Q: And the relative viability ([8]; first compound 1.265 µM)?
A: 0.474

Q: And the relative viability ([8]; first compound 4 µM)?
A: 0.462

Q: What about the relative viability ([9]; first compound 0.04 µM) of the same compound?
A: 0.931

Q: And the relative viability ([9]; first compound 0.1265 µM)?
A: 0.793

Q: What about the relative viability ([9]; first compound 0.4 µM) of the same compound?
A: 0.905

Q: What about the relative viability ([9]; first compound 1.265 µM) of the same compound?
A: 0.639

Q: What about the relative viability ([9]; first compound 4 µM) of the same compound?
A: 0.313

Q: And the relative viability ([10]; first compound 0.04 µM)?
A: 0.613

Q: And the relative viability ([10]; first compound 0.1265 µM)?
A: 0.534

Q: What about the relative viability ([10]; first compound 0.4 µM) of the same compound?
A: 0.561

Q: What about the relative viability ([10]; first compound 1.265 µM) of the same compound?
A: 0.314

Q: And the relative viability ([10]; first compound 4 µM)?
A: 0.226

Q: What about the relative viability ([11]; first compound 0.04 µM) of the same compound?
A: 0.866

Q: What about the relative viability ([11]; first compound 0.1265 µM) of the same compound?
A: 0.793

Q: And the relative viability ([11]; first compound 0.4 µM)?
A: 0.321

Q: And the relative viability ([11]; first compound 1.265 µM)?
A: 0.237

Q: And the relative viability ([11]; first compound 4 µM)?
A: 0.203

Q: What about the relative viability ([12]; first compound 0.04 µM) of the same compound?
A: 0.95

Q: What about the relative viability ([12]; first compound 0.4 µM) of the same compound?
A: 0.404

Q: And the relative viability ([12]; first compound 1.265 µM)?
A: 0.33

Q: What about the relative viability ([12]; first compound 4 µM) of the same compound?
A: 0.396

Q: What about the relative viability ([13]; first compound 0.04 µM) of the same compound?
A: 0.513

Q: What about the relative viability ([13]; first compound 0.1265 µM) of the same compound?
A: 0.555

Q: What about the relative viability ([13]; first compound 0.4 µM) of the same compound?
A: 0.385

Q: What about the relative viability ([13]; first compound 1.265 µM) of the same compound?
A: 0.339

Q: What about the relative viability ([13]; first compound 4 µM) of the same compound?
A: 0.288

Q: Which results are given for `CC(=O)O[C@@]12CO[C@@H]1C[C@H](O)[C@@]1(C)C(=O)[C@H](O)C3=C(C)[C@@H](OC(=O)[C@H](O)[C@@H](NC(=O)OC(C)(C)C)c4ccccc4)C[C@@](O)([C@@H](OC(=O)c4ccccc4)[C@H]21)C3(C)C` [Docetaxel] + Cc1nc(NC(=O)N2CCC[C@H]2C(N)=O)sc1-c1ccnc(C(C)(C)C(F)(F)F)c1 [Alpelisib] (partner 2 µM)?
A: relative viability ([1]; first compound 0.0002 µM): 1.05; relative viability ([1]; first compound 0.000632 µM): 1.06; relative viability ([1]; first compound 0.002 µM): 1.01; relative viability ([1]; first compound 0.006325 µM): 0.605; relative viability ([1]; first compound 0.02 µM): 0.431; relative viability ([2]; first compound 0.0002 µM): 0.616; relative viability ([2]; first compound 0.000632 µM): 0.516; relative viability ([2]; first compound 0.002 µM): 0.553; relative viability ([2]; first compound 0.006325 µM): 0.457; relative viability ([2]; first compound 0.02 µM): 0.336; relative viability ([3]; first compound 0.0002 µM): 0.727; relative viability ([3]; first compound 0.000632 µM): 0.62; relative viability ([3]; first compound 0.002 µM): 0.741; relative viability ([3]; first compound 0.006325 µM): 0.525; relative viability ([3]; first compound 0.02 µM): 0.454; relative viability ([4]; first compound 0.0002 µM): 0.797; relative viability ([4]; first compound 0.000632 µM): 0.576; relative viability ([4]; first compound 0.002 µM): 0.275; relative viability ([4]; first compound 0.006325 µM): 0.267; relative viability ([4]; first compound 0.02 µM): 0.174; relative viability ([5]; first compound 0.000632 µM): 0.222; relative viability ([5]; first compound 0.002 µM): 0.121; relative viability ([5]; first compound 0.006325 µM): 0.154; relative viability ([5]; first compound 0.02 µM): 0.0979; relative viability ([6]; first compound 0.0002 µM): 0.726; relative viability ([6]; first compound 0.000632 µM): 0.768; relative viability ([6]; first compound 0.002 µM): 0.435; relative viability ([6]; first compound 0.006325 µM): 0.313; relative viability ([6]; first compound 0.02 µM): 0.189; relative viability ([7]; first compound 0.0002 µM): 0.595; relative viability ([7]; first compound 0.000632 µM): 0.232; relative viability ([7]; first compound 0.002 µM): 0.116; relative viability ([7]; first compound 0.006325 µM): 0.0821; relative viability ([7]; first compound 0.02 µM): 0.0716; relative viability ([8]; first compound 0.0002 µM): 0.908; relative viability ([8]; first compound 0.000632 µM): 0.869; relative viability ([8]; first compound 0.002 µM): 0.618; relative viability ([8]; first compound 0.006325 µM): 0.533; relative viability ([8]; first compound 0.02 µM): 0.181; relative viability ([9]; first compound 0.0002 µM): 1.03; relative viability ([9]; first compound 0.000632 µM): 0.99; relative viability ([9]; first compound 0.002 µM): 0.432; relative viability ([9]; first compound 0.006325 µM): 0.147; relative viability ([9]; first compound 0.02 µM): 0.115; relative viability ([10]; first compound 0.0002 µM): 0.752; relative viability ([10]; first compound 0.000632 µM): 0.668; relative viability ([10]; first compound 0.002 µM): 0.0866; relative viability ([10]; first compound 0.006325 µM): 0.0749; relative viability ([10]; first compound 0.02 µM): 0.034; relative viability ([11]; first compound 0.0002 µM): 0.963; relative viability ([11]; first compound 0.000632 µM): 0.841; relative viability ([11]; first compound 0.002 µM): 0.195; relative viability ([11]; first compound 0.006325 µM): 0.176; relative viability ([11]; first compound 0.02 µM): 0.153; relative viability ([12]; first compound 0.0002 µM): 0.406; relative viability ([12]; first compound 0.000632 µM): 0.442; relative viability ([12]; first compound 0.006325 µM): 0.125; relative viability ([12]; first compound 0.02 µM): 0.109; relative viability ([13]; first compound 0.0002 µM): 0.612; relative viability ([13]; first compound 0.000632 µM): 0.512; relative viability ([13]; first compound 0.002 µM): 0.406; relative viability ([13]; first compound 0.006325 µM): 0.209; relative viability ([13]; first compound 0.02 µM): 0.0958
